# T1: hDDC (human Dopa decarboxylase) (Homo sapiens, UniProt P20711)
# T1 construct: gene DDC; homodimer
# T1 sequence (P20711 1-480): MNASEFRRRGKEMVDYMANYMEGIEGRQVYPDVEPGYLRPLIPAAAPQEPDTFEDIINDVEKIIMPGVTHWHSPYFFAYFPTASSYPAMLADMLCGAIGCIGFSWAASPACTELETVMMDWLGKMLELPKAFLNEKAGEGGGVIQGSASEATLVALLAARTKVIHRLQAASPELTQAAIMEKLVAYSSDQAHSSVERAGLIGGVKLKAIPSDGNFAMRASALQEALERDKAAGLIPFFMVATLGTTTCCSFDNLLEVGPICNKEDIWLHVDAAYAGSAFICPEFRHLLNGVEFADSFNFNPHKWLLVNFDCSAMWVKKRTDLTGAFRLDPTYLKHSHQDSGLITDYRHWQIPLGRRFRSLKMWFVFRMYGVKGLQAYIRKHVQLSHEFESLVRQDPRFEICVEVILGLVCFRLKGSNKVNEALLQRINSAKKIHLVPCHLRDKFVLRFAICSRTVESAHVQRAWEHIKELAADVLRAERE
# Experiments:
# [1] = molecular target: T1, hDDC (human Dopa decarboxylase); experiment: stopped-flow absorbance at […] nm, hyperbolic fit of kobs (two-step binding); settings: read-out: K1
# [2] = molecular target: T1, hDDC (human Dopa decarboxylase); experiment: quenching of intrinsic fluorescence of apoenzyme, tight-binding quadratic fit; settings: read-out: KD(PLP)
# [3] = substrate: N[C@@H](Cc1ccc(O)c(O)c1)C(=O)O; experiment: steady-state decarboxylation, spectrophotometric assay, Michaelis-Menten fit; type: biochemical, Homo sapiens; settings: pH 6.0, 50 mM Bis-Tris-propane, 10 μM PLP, 25°C
molecule,measurement,setting,value
N[C@@H](Cc1ccc(O)c(O)c1)C(=O)O [L-Dopa],Kd,[1],320 ± 20 µM
Cc1ncc(COP(=O)(O)O)c(C=O)c1O [PLP],Kd,[2],0.2 µM
"hDDC (human Dopa decarboxylase) (Homo sapiens) (protein, homodimer) MNASEFRRRGKEMVDYMANYMEGIEGRQVYPDVEPGYLRPLIPAAAPQEPDTFEDIINDVEKIIMPGVTHWHSPYFFAYFPTASSYPAMLADMLCGAIGCIGFSWAASPACTELETVMMDWLGKMLELPKAFLNEKAGEGGGVIQGSASEATLVALLAARTKVIHRLQAASPELTQAAIMEKLVAYSSDQAHSSVERAGLIGGVKLKAIPSDGNFAMRASALQEALERDKAAGLIPFFMVATLGTTTCCSFDNLLEVGPICNKEDIWLHVDAAYAGSAFICPEFRHLLNGVEFADSFNFNPHKWLLVNFDCSAMWVKKRTDLTGAFRLDPTYLKHSHQDSGLITDYRHWQIPLGRRFRSLKMWFVFRMYGVKGLQAYIRKHVQLSHEFESLVRQDPRFEICVEVILGLVCFRLKGSNKVNEALLQRINSAKKIHLVPCHLRDKFVLRFAICSRTVESAHVQRAWEHIKELAADVLRAERE",Km,[3],230 ± 30 µM
same,kcat,[3],3 s⁻¹

# From paper PMC3677616, “Interaction of Human Dopa Decarboxylase with L-Dopa: Spectroscopic and Kinetic Studies as a Function of pH” (BioMed Research International, 2013)
